Results from patent US8791132B2, “Compounds and methods for treatment of hypertension” (Medivation Technologies, Inc., priority 2011, dated 2014).
Like-named read-outs stand apart in the source and are kept apart here.

Columns and labels:
[1] = molecular target: T1, human recombinant adrenergic α2A receptor (Homo sapiens, UniProt P08913); experiment: Radioligand binding, adrenergic α2A ([3H]MK-912); conditions: [3H]MK-912, repeat datapoints each shown; for Percentage inhibition of ligand binding, Adrenergic α2A (0.1 μM): compound at 0.1 μM; for inhibition at 0.1 µM: read-out: Percentage inhibition of ligand binding, Adrenergic α2A (0.1 μM), compound at 0.1 μM
T1 construct: expressed in transfected cells; host or cells: insect Sf9 cells
T1 sequence (P08913 1-465): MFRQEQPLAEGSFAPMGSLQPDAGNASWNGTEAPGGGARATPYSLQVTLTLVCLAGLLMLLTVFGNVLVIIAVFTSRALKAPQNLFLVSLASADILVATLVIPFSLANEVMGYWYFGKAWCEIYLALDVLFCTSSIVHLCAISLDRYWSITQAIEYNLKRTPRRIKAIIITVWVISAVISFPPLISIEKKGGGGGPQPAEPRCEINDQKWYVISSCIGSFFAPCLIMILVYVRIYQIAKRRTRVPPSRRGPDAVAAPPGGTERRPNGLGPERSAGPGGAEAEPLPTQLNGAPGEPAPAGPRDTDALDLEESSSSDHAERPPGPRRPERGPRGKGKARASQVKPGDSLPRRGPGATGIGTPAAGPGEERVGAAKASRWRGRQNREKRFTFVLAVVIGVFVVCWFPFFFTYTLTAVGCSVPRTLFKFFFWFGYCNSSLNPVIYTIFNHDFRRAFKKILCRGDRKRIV
How it was run: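 In 50 mM Tris-HCl (pH 7.4) containing 12.5 mM MgCl2 and 2 mM EDTA, Sf9-expressed receptor was exposed to test compound plus 1 nM [3H]MK-912 at 25 °C for 60 min. Specific binding, corrected using 10 μM WB-4101, was quantified by filtration and counting and expressed as percent inhibition.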

[2] = molecular target: T2, rat adrenergic α1B receptor (Rattus norvegicus, UniProt P15823); experiment: Radioligand binding, adrenergic α1B ([3H]Prazosin); conditions: [3H]Prazosin, repeat datapoints each shown; for Percentage inhibition of ligand binding, Adrenergic α1B (0.1 μM): compound at 0.1 μM; for inhibition at 0.1 µM: read-out: Percentage inhibition of ligand binding, Adrenergic α1B (0.1 μM), compound at 0.1 μM; for inhibition at 0.03 µM: read-out: Percentage inhibition of ligand binding, Adrenergic α1B (0.03 μM), compound at 0.03 μM
T2 construct: rat adrenergic α1B receptor obtained from Wistar Rat liver; from tissue; host or cells: Wistar rat liver
T2 sequence (P15823 1-515): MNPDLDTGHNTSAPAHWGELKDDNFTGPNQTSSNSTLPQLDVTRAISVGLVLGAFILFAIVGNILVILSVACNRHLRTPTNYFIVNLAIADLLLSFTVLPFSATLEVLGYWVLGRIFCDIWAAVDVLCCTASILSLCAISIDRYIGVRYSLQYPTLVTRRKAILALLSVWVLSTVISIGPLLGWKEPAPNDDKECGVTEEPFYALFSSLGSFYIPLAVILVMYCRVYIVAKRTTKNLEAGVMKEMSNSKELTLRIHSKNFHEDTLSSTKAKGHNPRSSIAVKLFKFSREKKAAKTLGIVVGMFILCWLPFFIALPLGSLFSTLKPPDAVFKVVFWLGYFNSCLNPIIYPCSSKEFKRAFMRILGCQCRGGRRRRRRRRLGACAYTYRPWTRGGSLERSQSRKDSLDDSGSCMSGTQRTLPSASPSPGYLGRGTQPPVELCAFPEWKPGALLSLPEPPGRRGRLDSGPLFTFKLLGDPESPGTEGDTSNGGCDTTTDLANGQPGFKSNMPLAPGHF
How it was run: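 Incubation ran 60 min at 25 °C in Tris-HCl buffer (50 mM, pH 7.4, 0.5 mM EDTA) with Wistar rat liver α1B receptor. 10 μM phentolamine set non-specific binding.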

[3] = molecular target: T3, human recombinant adrenergic α2B receptor (Homo sapiens, UniProt P18089); experiment: Radioligand binding, adrenergic α2B ([3H]Rauwolscine); conditions: for Percentage inhibition of ligand binding, Adrenergic α2B (0.03 μM): compound at 0.03 μM; for Percentage inhibition of ligand binding, Adrenergic α2B (0.03 μM) / inhibition at 0.03 µM / inhibition at 0.1 µM: [3H]Rauwolscine, repeat datapoints each shown; for inhibition at 0.03 µM: read-out: Percentage inhibition of ligand binding, Adrenergic α2B (0.03 μM), compound at 0.03 μM; for inhibition at 0.1 µM: read-out: Percentage inhibition of ligand binding, Adrenergic α2B (0.1 μM), compound at 0.1 μM
T3 construct: expressed in transfected cells; host or cells: CHO-K1
T3 sequence (P18089 1-450): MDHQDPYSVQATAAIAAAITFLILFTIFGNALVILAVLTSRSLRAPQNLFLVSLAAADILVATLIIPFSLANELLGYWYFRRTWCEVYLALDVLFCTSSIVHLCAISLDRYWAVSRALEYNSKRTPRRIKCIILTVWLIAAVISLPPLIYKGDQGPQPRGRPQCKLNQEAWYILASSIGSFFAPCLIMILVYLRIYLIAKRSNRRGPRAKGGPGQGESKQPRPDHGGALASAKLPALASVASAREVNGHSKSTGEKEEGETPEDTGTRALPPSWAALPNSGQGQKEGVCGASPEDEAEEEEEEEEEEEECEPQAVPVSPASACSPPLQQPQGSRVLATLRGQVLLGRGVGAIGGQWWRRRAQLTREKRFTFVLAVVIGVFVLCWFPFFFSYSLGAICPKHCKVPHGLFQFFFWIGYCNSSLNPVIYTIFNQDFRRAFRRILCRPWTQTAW
How it was run: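 Readout: percent inhibition of specific [3H]Rauwolscine binding, measured by filtration and counting. Conditions: CHO-K1 cell-expressed receptor, 2.5 nM radioligand, 60 min, 25° C, Tris-HCl pH 7.4 buffer with MgCl2, EDTA, BSA. Non-specific binding: 10 μM Prazosin.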

| SMILES | Percentage inhibition of ligand binding, Adrenergic α2A (0.1 μM) [1] [%] | Percentage inhibition of ligand binding, Adrenergic α1B (0.1 μM) [2] [%] | Percentage inhibition of ligand binding, Adrenergic α2B (0.03 μM) [3] [%] | inhibition at 0.1 µM [1] [%] | inhibition at 0.1 µM [2] [%] | Ki ([3]; read-out: Ki α2B) [nM] | inhibition at 0.03 µM [3] [%] | inhibition at 0.03 µM [2] [%] | inhibition at 0.1 µM [3] [%] | Ki ([3]; Ki α2B) [nM] |
| --- | --- | --- | --- | --- | --- | --- | --- | --- | --- | --- |
| Cc1ccc2c(c1)c1c(n2CC(OC(=O)N(C)C)c2ccncc2)CCN(C)C1 (single isomer, unassigned) [141a, N,N-dimethyl-carbamic acid 2-(2,8-dimethyl-1,2,3,4-tetrahydro-pyrido[4,3-b]indol-5-yl)-1-pyridin-4-yl-ethyl ester] | −5 | 25 | 70 | – | – | – | – | – | – | – |
| Cc1ccc2c(c1)c1c(n2CC(OC(=O)N(C)C)c2ccncc2)CCN(C)C1 (single isomer, unassigned) [141b, N,N-dimethyl-carbamic acid 2-(2,8-dimethyl-1,2,3,4-tetrahydro-pyrido[4,3-b]indol-5-yl)-1-pyridin-4-yl-ethyl ester] | – | – | 86 | 19 | 28 | 3.44 | 79 | – | – | – |
| CN1CCc2c(c3cc(Cl)ccc3n2CC(C)(O)c2ccc(C(F)(F)F)nc2)C1 (single isomer, unassigned) [143b] | 0 | 17 | 49 | – | – | – | – | – | – | – |
| Cc1ccc2c(c1)c1c(n2CC(C)(OC(=O)C(C)C)c2cccnc2)CCN(C)C1 (single isomer, unassigned) [146a] | −1 | 41 | 37 | – | – | – | – | – | – | – |
| Cc1ccc2c(c1)c1c(n2CC(C)(OC(=O)C(C)C)c2cccnc2)CCN(C)C1 (single isomer, unassigned) [146b] | 21 | 11 | 63 | – | – | – | – | – | – | – |
| Cc1ccc2c(c1)c1c(n2CC(OC(=O)c2ccncc2)c2ccncc2)CCN(C)C1 (single isomer, unassigned) [147a, isonicotinic acid 2-(2,8-dimethyl-1,2,3,4-tetrahydro-pyrido[4,3-b]indol-5-yl)-1-pyridin-4-yl-ethylester] | 3 | 33 | 72 | – | – | – | – | – | – | – |
| Cc1ccc2c(c1)c1c(n2CC(OC(=O)c2ccncc2)c2ccncc2)CCN(C)C1 (single isomer, unassigned) [147b, isonicotinic acid 2-(2,8-dimethyl-1,2,3,4-tetrahydro-pyrido[4,3-b]indol-5-yl)-1-pyridin-4-yl-ethylester] | 36 | 82 | 93 | – | – | – | – | – | – | – |
| Cc1cnc2c(c1)c1c(n2CC(C)(O)c2ccc(C)nc2)CCN2CCCC12 (single isomer, unassigned) [148a] | −5 | 23 | 52 | – | – | – | – | – | – | – |
| Cc1cnc2c(c1)c1c(n2CC(C)(O)c2ccc(C)nc2)CCN2CCCC12 (single isomer, unassigned) [148b] | – | 74 | – | 37 | 71 | 0.43 | 105 | 35 | 106 | – |
| Cc1cnc2c(c1)c1c(n2CC(C)(O)c2ccc(C)nc2)CCN2CCCC12 (single isomer, unassigned) [148c] | −1 | 6 | 16 | – | – | – | – | – | – | – |
| Cc1ccc2c(c1)c1c(n2CC(C)(N)c2cccnc2)CCN(C)C1 (single isomer, unassigned) [149a, 1-(2,8-dimethyl-3,4-dihydro-1H-pyrido[4,3-b]indol-5(2H)-yl)-2-(pyridin-3-yl)propan-2-amine] | −4 | – | – | – | 12 | – | 16 | – | – | – |
| Cc1ccc2c(c1)c1c(n2CC(C)(N)c2cccnc2)CCN(C)C1 (single isomer, unassigned) [149b, 1-(2,8-dimethyl-3,4-dihydro-1H-pyrido[4,3-b]indol-5(2H)-yl)-2-(pyridin-3-yl)propan-2-amine] | 19 | 16 | 32 | – | – | – | – | – | – | – |
| Cc1ccc2c(c1)c1c(n2CC(c2ccncc2)N(C)C)CCN(C)C1 (single isomer, unassigned) [150a] | – | – | 96 | 16 | 16 | 1.57 | 88 | – | 100 | – |
| CNC(Cn1c2c(c3cc(C)ccc31)CN(C)CC2)c1ccncc1 (single isomer, unassigned) [151a, 2-(1,2,3,4-tetrahydro-2,8-dimethylpyrido[4,3-b]indol-5-yl)-N-methyl-1-(pyridin-4-yl)ethanamine] | – | – | 93 | 15 | 11 | – | – | – | – | – |
| CNC(Cn1c2c(c3cc(C)ccc31)CN(C)CC2)c1ccncc1 (single isomer, unassigned) [151b, 2-(1,2,3,4-tetrahydro-2,8-dimethylpyrido[4,3-b]indol-5-yl)-N-methyl-1-(pyridin-4-yl)ethanamine] | 8 | 9 | 37 | – | – | – | – | – | – | – |
| Cc1ccc2c(c1)c1c(n2CC(N)c2ccncc2)CCN(C)CC1 (single isomer, unassigned) [154a, 2-(3,9-dimethyl-2,3,4,5-tetrahydroazepino[4,5-b]indol-6(1H)-yl)-1-(pyridin-4-yl)ethanamine] | 4 | 39 | 31 | – | – | – | – | – | – | – |
| Cc1ccc2c(c1)c1c(n2CC(N)c2ccncc2)CCN(C)CC1 (single isomer, unassigned) [154b, 2-(3,9-dimethyl-2,3,4,5-tetrahydroazepino[4,5-b]indol-6(1H)-yl)-1-(pyridin-4-yl)ethanamine] | – | – | 83 | 5 | 95 | – | 80 | 80 | 95 | 3.33 |
